The text below walks through data of US11027028B2, “Manganese complexes with substituted bisphosphonates useful as imaging and therapeutic agents” (DUKE UNIVERSITY, priority 2015, dated 2021).

Data set [1] can be described thus: In vivo MRI after i.v. administration of Mn(II) complexes. Also noted: species or system mouse. As to the method:
FIG. 4. A, In vivo MRI in control mouse after i.v. administration of MnNTA. B, MRI after i.v. administration of Mn:ETID ([…] of 40 mM solution).
In vivo behavior was tested of two relatively strong (log K1>7) ligands for Mn(II) chelation, nitrilotriacetic acid (NTA), closely related to EDTA, and […] (3,4-DBA).
Enhancement of the bowel is also noted but more variable, believed to represent elimination of the coordination complex from the gallbladder into the small intestine. In addition, subtle but transient T1 changes are observed in the skeletal muscles and long bones that return to normal after 30 min, paralleling the mild residual T1 changes in major vessels, consistent with a blood pool rather than local parenchymal uptake effect.

The test system of another data set is 4T1 tumor. The data set can be described thus: Dynamic contrast enhancement of 4T1 tumor after i.v. administration. The format is in vivo. To be noted: pilot data. As to the method:
FIG. 5. Dynamic contrast enhancement of 4T1 tumor after i.v. administration of 1-hydroxybisphosphonate:Mn complex linked to HSP90 inhibitor as in Scheme 1C, 25 mg/kg. Graph on left depicts relative change in T1 enhancement in tumors after labeled drug (n=5) and after Mn:ETID complex alone (n=6).
Several synthetic strategies were used for labeling small molecule drugs either directly or via polyethyleneglycol (PEG) linkers. Two complexes, the first with a medronate analogue (Scheme IB) via the amine-terminated PEG linker and the second an etidronate analogue coupled through the COOH-terminated PEG linker (Scheme 1C), were synthesized, characterized and studied preliminarily in vivo.

The conditions of data set [2]: previously FDA-approved Mn(II) agent; cited from earlier work.

As for `O=C(O)CN(CC(=O)O)CC(=O)O` [NTA, nitrilotriacetic acid], the Cardiac enhancement entry in data set [1] (after i.v. administration, indicates free Mn released into the blood pool) is given as “cardiac enhancement was also seen”. For the same compound, the “Biodistribution on in vivo MR imaging” value in data set [1] (mouse, in vivo, iv) is “release of free Mn and hepatocellular uptake”.
On to `Cc1nn(-c2ccc(C(N)=O)c(NCCCOCCOCCOCCOCCOCCCC(=O)NCCCC(O)(P(=O)(O)O)P(=O)(O)O)c2)c2c1C(=O)CC(C)(C)C2` [Scheme 1C], for which the “Enhancement in 4T1 tumors relative to paramagnetic coordination complex alone” value with 4T1 tumor was “progressive accumulation of enhancement in 4T1 tumors that is greater than what is seen for the paramagnetic coordination complex alone”.
Turning to `Cc1ncc(COP(=O)([O-])[O-])c(CN(CCN(CC(=O)[O-])Cc2c(COP(=O)([O-])[O-])cnc(C)c2[O-])CC(=O)[O-])c1[O-].[H+].[H+].[H+].[Mn+2].[Na+].[Na+].[Na+]` [Teslascan, mangafodipir trisodium], the In vivo distribution result in data set [2] is listed as “immediately distributed to the liver, releasing free Mn”.
